Test results as given in ChEMBL document CHEMBL4507283, “Data for DCP probe BI-1935” (2021).

Columns and labels:
[1] = target: Serine/threonine-protein kinase Nek4 (Homo sapiens) (UniProt P51957); settings: Compound concentration 1000.0 nM
[2] = target: Serine/threonine-protein kinase SIK2 (Homo sapiens) (UniProt Q9H0K1); settings: Compound concentration 1000.0 nM
[3] = target: Phosphatidylinositol 4-phosphate 5-kinase type-1 alpha (Homo sapiens) (UniProt Q99755); settings: Compound concentration 1000.0 nM
[4] = target: RAC-alpha serine/threonine-protein kinase (Homo sapiens) (UniProt P31749); settings: Compound concentration 1000.0 nM
[5] = target: Myosin-IIIb (Homo sapiens) (UniProt Q8WXR4); settings: Compound concentration 1000.0 nM
[6] = target: Angiotensin-converting enzyme (Oryctolagus cuniculus) (UniProt P12822); assay: ANGIOCONVENZ Eurofins-Panlabs selectivity data (BI); settings: Compound concentration 10.0 uM
[7] = target: 5-hydroxytryptamine receptor 4 (Cavia porcellus) (UniProt O70528); assay: 5HT4/GPIG Eurofins-Panlabs selectivity data (BI); settings: Compound concentration 10.0 uM
[8] = test system: Leucine-rich repeat serine/threonine-protein kinase 2 (Homo sapiens), Q5S007 [G2019S]; settings: Compound concentration 1000.0 nM
[9] = target: Protein kinase C theta type (Homo sapiens) (UniProt Q04759); settings: Compound concentration 1000.0 nM
[10] = target: Tyrosine-protein kinase FRK (Homo sapiens) (UniProt P42685); settings: Compound concentration 1000.0 nM
[11] = test system: eIF-2-alpha kinase GCN2 (Homo sapiens), Q9P2K8 [S808G]; settings: Compound concentration 1000.0 nM
[12] = target: Death-associated protein kinase 2 (Homo sapiens) (UniProt Q9UIK4); settings: Compound concentration 1000.0 nM
[13] = target: Serine/threonine-protein kinase D1 (Homo sapiens) (UniProt Q15139); settings: Compound concentration 1000.0 nM
[14] = target: Epidermal growth factor receptor (Homo sapiens) (UniProt P00533); settings: Compound concentration 1000.0 nM
[15] = target: Kappa-type opioid receptor (Homo sapiens) (UniProt P41145); settings: Compound concentration 10.0 uM
[16] = target: D(4) dopamine receptor (Homo sapiens) (UniProt P21917); assay: D4.2/H Eurofins-Panlabs selectivity data (BI); settings: Compound concentration 10.0 uM
[17] = target: Receptor-interacting serine/threonine-protein kinase 2 (Homo sapiens) (UniProt O43353); settings: Compound concentration 1000.0 nM
[18] = target: Delta-type opioid receptor (Homo sapiens) (UniProt P41143); settings: Compound concentration 10.0 uM
[19] = target: Type-2 angiotensin II receptor (Homo sapiens) (UniProt P50052); assay: AT2/HU Eurofins-Panlabs selectivity data (BI); settings: Compound concentration 10.0 uM
[20] = target: Platelet-derived growth factor receptor alpha (Homo sapiens) (UniProt P16234); settings: Compound concentration 1000.0 nM
[21] = target: Tyrosine-protein kinase JAK2 (Homo sapiens) (UniProt O60674); settings: Compound concentration 1000.0 nM
[22] = target: Vasopressin V1a receptor (Homo sapiens) (UniProt P37288); assay: V1A/HU Eurofins-Panlabs selectivity data (BI); settings: Compound concentration 10.0 uM
Vasopressin V1a receptor (Homo sapiens), sequence (P37288 whole entry, looked up): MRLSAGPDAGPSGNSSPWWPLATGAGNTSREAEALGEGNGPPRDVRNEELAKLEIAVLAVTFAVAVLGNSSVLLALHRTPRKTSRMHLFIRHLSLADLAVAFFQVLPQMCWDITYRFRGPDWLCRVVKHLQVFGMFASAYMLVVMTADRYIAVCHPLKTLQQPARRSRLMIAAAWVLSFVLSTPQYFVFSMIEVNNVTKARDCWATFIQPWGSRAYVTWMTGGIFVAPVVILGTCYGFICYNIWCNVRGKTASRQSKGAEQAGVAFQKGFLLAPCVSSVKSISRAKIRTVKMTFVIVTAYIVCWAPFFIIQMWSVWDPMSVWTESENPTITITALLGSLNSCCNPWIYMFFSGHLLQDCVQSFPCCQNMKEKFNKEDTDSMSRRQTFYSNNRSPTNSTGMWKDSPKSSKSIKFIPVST

[23] = target: Cyclin-dependent kinase 11B (Homo sapiens) (UniProt P21127); settings: Compound concentration 1000.0 nM
[24] = target: Serine/threonine-protein kinase 17A (Homo sapiens) (UniProt Q9UEE5); settings: Compound concentration 1000.0 nM
[25] = target: Serine/threonine-protein kinase N1 (Homo sapiens) (UniProt Q16512); settings: Compound concentration 1000.0 nM
[26] = target: Ephrin type-B receptor 2 (Homo sapiens) (UniProt P29323); settings: Compound concentration 1000.0 nM
[27] = target: Muscle, skeletal receptor tyrosine-protein kinase (Homo sapiens) (UniProt O15146); settings: Compound concentration 1000.0 nM
[28] = target: Testis-specific serine/threonine-protein kinase 3 (Homo sapiens) (UniProt Q96PN8); settings: Compound concentration 1000.0 nM
[29] = target: Nitric oxide synthase 3 (Bos taurus) (UniProt P29473); assay: ENOS_MDS Eurofins-Panlabs selectivity data (BI); settings: Compound concentration 10.0 uM
Nitric oxide synthase 3 (Bos taurus), sequence (P29473 whole entry): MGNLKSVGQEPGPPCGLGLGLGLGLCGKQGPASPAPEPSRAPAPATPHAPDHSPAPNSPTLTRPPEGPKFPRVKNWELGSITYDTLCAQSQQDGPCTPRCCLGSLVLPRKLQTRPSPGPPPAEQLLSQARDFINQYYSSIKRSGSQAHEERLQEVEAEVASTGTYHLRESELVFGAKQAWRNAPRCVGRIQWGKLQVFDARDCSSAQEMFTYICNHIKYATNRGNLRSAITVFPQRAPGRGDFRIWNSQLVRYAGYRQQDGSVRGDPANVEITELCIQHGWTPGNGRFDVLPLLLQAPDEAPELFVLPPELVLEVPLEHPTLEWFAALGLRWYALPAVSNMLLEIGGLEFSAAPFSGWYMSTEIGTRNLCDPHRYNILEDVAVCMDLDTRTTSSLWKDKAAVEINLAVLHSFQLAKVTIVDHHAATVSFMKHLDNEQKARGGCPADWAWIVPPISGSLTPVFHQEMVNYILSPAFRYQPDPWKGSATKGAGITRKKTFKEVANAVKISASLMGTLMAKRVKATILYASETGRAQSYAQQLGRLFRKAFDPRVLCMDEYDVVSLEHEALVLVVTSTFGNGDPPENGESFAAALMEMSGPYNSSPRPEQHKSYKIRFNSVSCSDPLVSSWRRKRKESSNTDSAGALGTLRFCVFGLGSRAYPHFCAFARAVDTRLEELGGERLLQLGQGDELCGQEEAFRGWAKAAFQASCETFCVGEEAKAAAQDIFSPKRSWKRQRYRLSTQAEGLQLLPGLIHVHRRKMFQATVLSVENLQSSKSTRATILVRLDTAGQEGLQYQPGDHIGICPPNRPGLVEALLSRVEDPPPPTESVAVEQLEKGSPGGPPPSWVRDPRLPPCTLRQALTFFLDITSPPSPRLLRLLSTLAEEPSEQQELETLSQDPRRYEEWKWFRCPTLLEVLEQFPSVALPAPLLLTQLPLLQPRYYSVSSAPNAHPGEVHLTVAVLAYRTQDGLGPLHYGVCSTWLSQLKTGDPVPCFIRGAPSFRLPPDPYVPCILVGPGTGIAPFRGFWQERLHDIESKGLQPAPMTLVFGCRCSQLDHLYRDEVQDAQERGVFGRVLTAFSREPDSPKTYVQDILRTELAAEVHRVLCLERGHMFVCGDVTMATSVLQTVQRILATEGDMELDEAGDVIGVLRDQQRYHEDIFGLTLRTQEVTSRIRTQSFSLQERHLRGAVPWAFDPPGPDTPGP

[30] = target: Dual specificity mitogen-activated protein kinase kinase 1 (Homo sapiens) (UniProt Q02750); settings: Compound concentration 1000.0 nM
[31] = test system: Hepatocyte growth factor receptor (Homo sapiens), P08581 [M1250T]; settings: Compound concentration 1000.0 nM
[32] = target: TGF-beta receptor type-2 (Homo sapiens) (UniProt P37173); settings: Compound concentration 1000.0 nM
[33] = target: Activin receptor type-1B (Homo sapiens) (UniProt P36896); settings: Compound concentration 1000.0 nM
Activin receptor type-1B (Homo sapiens), sequence (P36896 whole entry): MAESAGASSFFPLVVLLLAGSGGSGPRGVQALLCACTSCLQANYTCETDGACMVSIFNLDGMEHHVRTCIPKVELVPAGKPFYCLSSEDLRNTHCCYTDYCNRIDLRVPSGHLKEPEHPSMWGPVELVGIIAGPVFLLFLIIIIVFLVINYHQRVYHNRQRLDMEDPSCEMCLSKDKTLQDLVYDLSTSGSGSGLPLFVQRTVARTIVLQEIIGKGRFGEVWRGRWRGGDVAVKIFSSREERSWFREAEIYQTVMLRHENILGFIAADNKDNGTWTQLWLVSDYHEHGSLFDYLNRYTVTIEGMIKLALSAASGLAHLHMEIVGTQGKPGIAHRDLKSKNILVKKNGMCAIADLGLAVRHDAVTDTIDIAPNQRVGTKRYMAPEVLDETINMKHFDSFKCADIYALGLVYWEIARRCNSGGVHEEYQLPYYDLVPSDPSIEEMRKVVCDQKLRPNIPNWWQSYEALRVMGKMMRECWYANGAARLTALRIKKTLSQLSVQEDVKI

[34] = test system: Hepatocyte growth factor receptor (Homo sapiens), P08581 [Y1235D]; settings: Compound concentration 1000.0 nM
[35] = target: Eukaryotic translation initiation factor 2-alpha kinase 1 (Homo sapiens) (UniProt Q9BQI3); settings: Compound concentration 1000.0 nM
[36] = target: Receptor-interacting serine/threonine-protein kinase 4 (Homo sapiens) (UniProt P57078); settings: Compound concentration 1000.0 nM
[37] = target: Leukocyte tyrosine kinase receptor (Homo sapiens) (UniProt P29376); settings: Compound concentration 1000.0 nM
[38] = target: Dual specificity tyrosine-phosphorylation-regulated kinase 1B (Homo sapiens) (UniProt Q9Y463); settings: Compound concentration 1000.0 nM
Dual specificity tyrosine-phosphorylation-regulated kinase 1B (Homo sapiens), sequence (Q9Y463 whole entry, looked up): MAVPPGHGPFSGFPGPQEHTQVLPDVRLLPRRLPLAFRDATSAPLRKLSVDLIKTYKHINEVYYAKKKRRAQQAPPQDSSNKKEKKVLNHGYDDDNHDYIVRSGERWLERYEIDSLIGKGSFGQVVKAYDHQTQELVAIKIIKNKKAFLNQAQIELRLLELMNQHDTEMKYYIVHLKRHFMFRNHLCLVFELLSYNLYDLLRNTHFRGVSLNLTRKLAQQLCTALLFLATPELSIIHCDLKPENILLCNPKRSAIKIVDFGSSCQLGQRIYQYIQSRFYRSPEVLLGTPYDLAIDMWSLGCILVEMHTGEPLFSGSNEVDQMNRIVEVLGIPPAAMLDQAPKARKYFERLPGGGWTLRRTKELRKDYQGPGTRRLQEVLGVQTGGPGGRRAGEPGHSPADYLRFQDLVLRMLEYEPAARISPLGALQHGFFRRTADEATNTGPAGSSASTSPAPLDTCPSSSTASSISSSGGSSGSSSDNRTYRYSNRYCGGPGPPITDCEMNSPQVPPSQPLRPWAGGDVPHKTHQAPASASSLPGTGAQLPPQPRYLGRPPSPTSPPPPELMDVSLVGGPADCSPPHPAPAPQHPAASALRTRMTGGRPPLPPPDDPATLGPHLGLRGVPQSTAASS

[39] = target: Serine/threonine-protein kinase haspin (Homo sapiens) (UniProt Q8TF76); settings: Compound concentration 1000.0 nM
[40] = target: Myotonin-protein kinase (Homo sapiens) (UniProt Q09013); settings: Compound concentration 1000.0 nM
[41] = target: Calpain-1 catalytic subunit (Homo sapiens) (UniProt P07384); assay: MU-CALPAIN Eurofins-Panlabs selectivity data (BI); settings: Compound concentration 10.0 uM
Calpain-1 catalytic subunit (Homo sapiens), sequence (P07384 whole entry): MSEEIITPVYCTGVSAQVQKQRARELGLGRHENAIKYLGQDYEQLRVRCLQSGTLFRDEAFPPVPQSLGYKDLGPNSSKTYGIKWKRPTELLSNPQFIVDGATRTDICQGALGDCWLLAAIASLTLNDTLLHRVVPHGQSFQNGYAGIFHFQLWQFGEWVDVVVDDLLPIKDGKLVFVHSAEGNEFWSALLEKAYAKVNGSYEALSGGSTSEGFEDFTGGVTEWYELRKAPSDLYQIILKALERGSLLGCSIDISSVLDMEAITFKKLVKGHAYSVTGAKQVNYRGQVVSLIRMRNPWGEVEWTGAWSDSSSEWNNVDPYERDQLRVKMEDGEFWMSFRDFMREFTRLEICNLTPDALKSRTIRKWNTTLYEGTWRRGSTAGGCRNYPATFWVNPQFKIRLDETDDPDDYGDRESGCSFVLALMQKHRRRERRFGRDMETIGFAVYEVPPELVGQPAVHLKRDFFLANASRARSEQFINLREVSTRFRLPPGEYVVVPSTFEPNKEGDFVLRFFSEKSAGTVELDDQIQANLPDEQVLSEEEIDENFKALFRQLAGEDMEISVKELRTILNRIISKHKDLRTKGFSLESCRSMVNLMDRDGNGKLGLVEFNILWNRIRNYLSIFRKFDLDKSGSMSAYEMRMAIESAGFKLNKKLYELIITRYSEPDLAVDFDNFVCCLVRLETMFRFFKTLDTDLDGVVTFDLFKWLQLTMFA

[42] = target: Serine/threonine-protein kinase PAK 4 (Homo sapiens) (UniProt O96013); settings: Compound concentration 1000.0 nM
Serine/threonine-protein kinase PAK 4 (Homo sapiens), sequence (O96013 whole entry, looked up): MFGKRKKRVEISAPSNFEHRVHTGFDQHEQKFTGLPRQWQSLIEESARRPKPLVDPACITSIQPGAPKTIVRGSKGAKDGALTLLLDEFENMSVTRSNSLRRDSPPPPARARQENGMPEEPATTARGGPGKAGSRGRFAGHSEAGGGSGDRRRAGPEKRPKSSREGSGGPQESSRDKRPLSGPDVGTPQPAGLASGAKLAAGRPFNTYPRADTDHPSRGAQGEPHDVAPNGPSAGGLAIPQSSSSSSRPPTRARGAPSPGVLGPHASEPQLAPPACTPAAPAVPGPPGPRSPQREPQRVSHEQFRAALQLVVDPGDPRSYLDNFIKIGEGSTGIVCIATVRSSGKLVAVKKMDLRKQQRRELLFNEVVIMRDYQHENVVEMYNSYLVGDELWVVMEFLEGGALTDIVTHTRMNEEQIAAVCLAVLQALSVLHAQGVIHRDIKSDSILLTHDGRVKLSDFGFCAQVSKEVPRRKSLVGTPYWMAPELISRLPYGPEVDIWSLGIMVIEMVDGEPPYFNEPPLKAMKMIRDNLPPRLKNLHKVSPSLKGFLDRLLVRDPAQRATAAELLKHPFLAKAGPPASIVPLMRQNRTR

[43] = target: Serine/threonine-protein kinase Nek3 (Homo sapiens) (UniProt P51956); settings: Compound concentration 1000.0 nM
[44] = target: Mu-type opioid receptor (Homo sapiens) (UniProt P35372); settings: Compound concentration 10.0 uM
[45] = target: Glycogen synthase kinase-3 alpha (Homo sapiens) (UniProt P49840); settings: Compound concentration 1000.0 nM
[46] = target: Inhibitor of nuclear factor kappa-B kinase subunit epsilon (Homo sapiens) (UniProt Q14164); settings: Compound concentration 1000.0 nM

Serine/threonine-protein kinase Nek4 (Homo sapiens), sequence (P51957 whole entry, looked up): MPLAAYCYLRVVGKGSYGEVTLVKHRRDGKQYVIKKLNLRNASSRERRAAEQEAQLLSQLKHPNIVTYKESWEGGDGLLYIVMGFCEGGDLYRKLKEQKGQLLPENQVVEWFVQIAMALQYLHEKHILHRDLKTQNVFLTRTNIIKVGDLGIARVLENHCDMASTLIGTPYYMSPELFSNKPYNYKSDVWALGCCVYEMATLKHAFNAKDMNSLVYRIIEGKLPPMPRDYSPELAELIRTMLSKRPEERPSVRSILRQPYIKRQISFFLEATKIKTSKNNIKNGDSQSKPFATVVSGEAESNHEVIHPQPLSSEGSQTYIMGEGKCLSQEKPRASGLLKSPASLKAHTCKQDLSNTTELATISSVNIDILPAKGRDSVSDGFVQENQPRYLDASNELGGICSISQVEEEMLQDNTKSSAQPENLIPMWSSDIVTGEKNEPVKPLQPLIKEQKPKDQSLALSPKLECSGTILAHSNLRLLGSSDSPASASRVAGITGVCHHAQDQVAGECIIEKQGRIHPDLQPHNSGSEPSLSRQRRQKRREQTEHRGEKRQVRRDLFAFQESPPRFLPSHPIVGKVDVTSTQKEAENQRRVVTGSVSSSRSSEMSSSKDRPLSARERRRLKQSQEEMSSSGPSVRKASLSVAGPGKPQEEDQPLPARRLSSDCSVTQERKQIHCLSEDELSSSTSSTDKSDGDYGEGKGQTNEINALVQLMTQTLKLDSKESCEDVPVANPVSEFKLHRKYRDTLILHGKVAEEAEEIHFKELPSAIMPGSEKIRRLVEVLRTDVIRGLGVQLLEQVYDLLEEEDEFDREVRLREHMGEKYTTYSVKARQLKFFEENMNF

CCOCCn1cc(C(=O)Nc2ccc(-n3nc(-c4cccnc4)cc3C(F)(F)F)cn2)ccc1=O [BI 1935]
residual activity [1]: 80% | residual activity [2]: 91% | residual activity [3]: 100% | residual activity [4]: 95% | residual activity [5]: 96% | residual activity [6]: 101% | residual activity [7]: 103% | residual activity [8]: 100% | residual activity [9]: 73% | residual activity [10]: 100% | residual activity [11]: 72% | residual activity [12]: 93% | residual activity [13]: 100% | residual activity [14]: 100% | inhibition [15]: 3.2% | residual activity [16]: 103% | residual activity [17]: 71% | inhibition [18]: -6.39% | residual activity [19]: 97% | residual activity [20]: 68% | residual activity [21]: 91% | residual activity [22]: 98% | residual activity [23]: 100% | residual activity [24]: 100% | residual activity [25]: 76% | residual activity [26]: 61% | residual activity [27]: 99% | residual activity [28]: 100% | residual activity [29]: 111% | residual activity [30]: 86% | residual activity [31]: 96% | residual activity [32]: 100% | residual activity [33]: 79% | residual activity [34]: 100% | residual activity [35]: 84% | residual activity [36]: 81% | residual activity [37]: 100% | residual activity [38]: 39% | residual activity [39]: 100% | residual activity [40]: 100% | residual activity [41]: 96% | residual activity [42]: 100% | residual activity [43]: 100% | inhibition [44]: 2.68% | residual activity [45]: 100% | residual activity [46]: 79%
